The conditions of data set [1]: 101.33 kPa, Liquid, Vibrating tube method.
Data set [2] is described as follows: activity coefficient (dimensionless); of the first substance listed, at infinite dilution; xn = mol fraction of the nth substance listed. Conditions: 101 kPa, Liquid, Chromatography, x1 = 0.

Numbers after ± are expanded uncertainties.

Our source for the mass density and activity coefficient values is the NIST ThermoML archive (doi:10.1016/j.jct.2014.12.027).

One may read the mass density as mass per unit of volume.

Turning to `CCCC[n+]1ccc(C)cc1.N#CC(=C=[N-])C#N` [1-butyl-4-methylpyridinium tricyanomethanide], the mass density in data set [1] (293.15 K) was found to be 1037.3 ± 0.9 kg/m3; in data set [1] (303.15 K), 1031.7 ± 0.9 kg/m3; in data set [1] (313.15 K) it was 1026.2 ± 0.9 kg/m3; in data set [1] (323.15 K) it was 1020.7 ± 0.9 kg/m3; in data set [1] (333.15 K), 1015.1 ± 0.9 kg/m3; in data set [1] (343.15 K) it was 1009.6 ± 0.9 kg/m3.

Turning to `CO` [methanol] + CCCC[n+]1ccc(C)cc1.N#CC(=C=[N-])C#N, the activity coefficient in data set [2] (318.15 K) is 0.663 ± 0.045; in data set [2] (328.15 K), 0.644 ± 0.044; in data set [2] (338.15 K) it was 0.625 ± 0.043; in data set [2] (348.15 K), 0.612 ± 0.043; in data set [2] (358.15 K) it was 0.593 ± 0.042; in data set [2] (368.15 K) it was 0.58 ± 0.041.

Turning to `CC1CCCCC1` [methylcyclohexane] + CCCC[n+]1ccc(C)cc1.N#CC(=C=[N-])C#N, the activity coefficient in data set [2] (318.15 K) is 15.8 ± 1.1; in data set [2] (328.15 K) it was 14.8 ± 1; in data set [2] (338.15 K), 13.9 ± 1; in data set [2] (348.15 K) it was 13.4 ± 0.9; in data set [2] (358.15 K) it was 12.7 ± 0.9; in data set [2] (368.15 K), 12.1 ± 0.8.

Turning to `CCCCCCCCC` [nonane] + CCCC[n+]1ccc(C)cc1.N#CC(=C=[N-])C#N, the activity coefficient in data set [2] (318.15 K) was 65.1 ± 4.5; in data set [2] (328.15 K), 59.1 ± 4; in data set [2] (338.15 K) it was 55.7 ± 3.8; in data set [2] (348.15 K) it was 51.2 ± 3.5; in data set [2] (358.15 K), 47.6 ± 3.3; in data set [2] (368.15 K), 45.8 ± 3.1.

In the case of `C=CCCCCCC` [oct-1-ene] + CCCC[n+]1ccc(C)cc1.N#CC(=C=[N-])C#N, the activity coefficient in data set [2] (318.15 K) is 21.3 ± 1.5; in data set [2] (328.15 K) it was 20.3 ± 1.4; in data set [2] (338.15 K) it was 19.7 ± 1.3; in data set [2] (348.15 K) it was 18.9 ± 1.3; in data set [2] (358.15 K) it was 18.3 ± 1.3; in data set [2] (368.15 K), 17.8 ± 1.2.

On to `CCCCCCCC` [octane] + CCCC[n+]1ccc(C)cc1.N#CC(=C=[N-])C#N, for which the activity coefficient amounted to 46.4 ± 3.2 in data set [2] (318.15 K); 43.2 ± 3 in data set [2] (328.15 K); 41.1 ± 2.8 in data set [2] (338.15 K); 38.4 ± 2.6 in data set [2] (348.15 K); 36.3 ± 2.5 in data set [2] (358.15 K); 34.6 ± 2.4 in data set [2] (368.15 K).

As for `CCCC(C)=O` [pentan-2-one] + CCCC[n+]1ccc(C)cc1.N#CC(=C=[N-])C#N, the activity coefficient stood at 0.955 ± 0.06 in data set [2] (318.15 K); 0.986 ± 0.062 in data set [2] (328.15 K); 1.01 ± 0.06 in data set [2] (338.15 K); 1.05 ± 0.07 in data set [2] (348.15 K); 1.07 ± 0.07 in data set [2] (358.15 K); 1.1 ± 0.07 in data set [2] (368.15 K).

For the compound `CCC(=O)CC` [pentan-3-one] + CCCC[n+]1ccc(C)cc1.N#CC(=C=[N-])C#N, the activity coefficient in data set [2] (318.15 K) was 0.942 ± 0.059; in data set [2] (328.15 K) it was 0.976 ± 0.061; in data set [2] (338.15 K), 1.01 ± 0.06; in data set [2] (348.15 K) it was 1.05 ± 0.07; in data set [2] (358.15 K), 1.07 ± 0.07; in data set [2] (368.15 K), 1.11 ± 0.07.

For the compound `CCCO` [propan-1-ol] + CCCC[n+]1ccc(C)cc1.N#CC(=C=[N-])C#N, the activity coefficient in data set [2] (318.15 K) was found to be 1.06 ± 0.07; in data set [2] (328.15 K), 1.01 ± 0.06; in data set [2] (338.15 K), 0.965 ± 0.061; in data set [2] (348.15 K), 0.936 ± 0.059; in data set [2] (358.15 K), 0.906 ± 0.057; in data set [2] (368.15 K) it was 0.872 ± 0.056.

For the compound `CC(C)O` [propan-2-ol] + CCCC[n+]1ccc(C)cc1.N#CC(=C=[N-])C#N, the activity coefficient in data set [2] (318.15 K) was 1.15 ± 0.07; in data set [2] (328.15 K), 1.09 ± 0.07; in data set [2] (338.15 K) it was 1.04 ± 0.07; in data set [2] (348.15 K) it was 1 ± 0.06; in data set [2] (358.15 K), 0.961 ± 0.06; in data set [2] (368.15 K), 0.928 ± 0.059.

As to `c1ccncc1` [pyridine] + CCCC[n+]1ccc(C)cc1.N#CC(=C=[N-])C#N, the activity coefficient in data set [2] (328.15 K) was 0.498 ± 0.038; in data set [2] (338.15 K), 0.51 ± 0.038; in data set [2] (348.15 K), 0.528 ± 0.039; in data set [2] (358.15 K), 0.542 ± 0.04; in data set [2] (368.15 K), 0.557 ± 0.04.

Take `C1CCOC1` [tetrahydrofuran] + CCCC[n+]1ccc(C)cc1.N#CC(=C=[N-])C#N: the activity coefficient was determined as 0.779 ± 0.051 in data set [2] (318.15 K); 0.807 ± 0.052 in data set [2] (328.15 K); 0.827 ± 0.053 in data set [2] (338.15 K); 0.856 ± 0.055 in data set [2] (348.15 K); 0.872 ± 0.056 in data set [2] (358.15 K); 0.907 ± 0.058 in data set [2] (368.15 K).

Take `c1ccsc1` [thiophene] + CCCC[n+]1ccc(C)cc1.N#CC(=C=[N-])C#N: the activity coefficient in data set [2] (318.15 K) amounted to 0.636 ± 0.044; in data set [2] (328.15 K) it was 0.658 ± 0.045; in data set [2] (338.15 K) it was 0.678 ± 0.046; in data set [2] (348.15 K), 0.704 ± 0.047; in data set [2] (358.15 K) it was 0.733 ± 0.049; in data set [2] (368.15 K), 0.748 ± 0.049.

Consider `Cc1ccccc1` [toluene] + CCCC[n+]1ccc(C)cc1.N#CC(=C=[N-])C#N, for which the activity coefficient in data set [2] (318.15 K) worked out at 1.19 ± 0.08; in data set [2] (328.15 K) it was 1.23 ± 0.08; in data set [2] (338.15 K), 1.27 ± 0.08; in data set [2] (348.15 K) it was 1.32 ± 0.09; in data set [2] (358.15 K), 1.36 ± 0.09; in data set [2] (368.15 K), 1.4 ± 0.09.

As to `O` [water] + CCCC[n+]1ccc(C)cc1.N#CC(=C=[N-])C#N, the activity coefficient worked out at 0.971 ± 0.061 in data set [2] (318.15 K); 0.926 ± 0.059 in data set [2] (328.15 K); 0.887 ± 0.056 in data set [2] (338.15 K); 0.859 ± 0.055 in data set [2] (348.15 K); 0.826 ± 0.053 in data set [2] (358.15 K); 0.796 ± 0.052 in data set [2] (368.15 K).
